The results in this text go back to US9682955B2, “Quinazoline derivatives useful as CB-1 inverse agonists” (Janssen Pharmaceutica NV, priority 2014, dated 2017).

For assay [1], the target named is Human CB1R (Cannabanoid receptor 1) (Homo sapiens (Human), UniProt P21554). As to the kind of experiment: CB-1 in vitro cAMP assay (HTRF). Conditions: mean where tested more than once. Type of assay: cell-based. From the text: (§1) CB1 and CB2 receptors are Gi-coupled GPCR. Activation of CB1 and CB2 receptors results in a decrease in cAMP production. An inverse agonist of the CB1 or CB2 receptor results in the opposite effect, an increase of cAMP production. The principle of this assay is based on HTRF® technology (Homogeneous Time-Resolved Fluorescence). The method is a competitive immunoassay between native cAMP produced by cells and the cAMP labeled with the fluorophore d2. The tracer binding is quantified by a Mab anti-cAMP labeled with Eu3+TBP-NHS Cryptate (supplied as part of the assay kit). The specific signal (i.e. energy transfer) is inversely proportional to the concentration of cAMP in the standard or sample.
(§2) Human CB1R (Cannabanoid receptor 1) was stably transfected in HEK-293 cells (DiscoveRx, cat: 93-0200C1). Human CB2R (Cannabanoid receptor 2) was stably transfected in HEK-293 cells (DiscoveRx, cat: 93-0201C1). Cell cultures were maintained in media: DMEM (Invitrogen Cat#12430-054) supplemented with 10% HI FBS (Invitrogen Cat#16140-071), 1% L-glutamine (Invitrogen Cat#25030-081), 0.2 mg/ml Hygromycin B (Invitrogen Cat#10687-010), 600 μg/mL G418 (Invitrogen Cat#10131-035), and 1× Penn/Strep (Invitrogen 15140-122). After cell expansion, aliquots were cryo-stored in media containing 5% DMSO (Pierce Cat#20684).
(§3) One day prior to experiments media was warmed to 37° C. and the cryo-stored cells were thawed in a 37° C. water bath. The cells were then added to media (10× volume) and the mixture was centrifugated at 1000 RPM for 5 min. The supernate was removed and the cells were re-suspended in media. A sample of the cell suspension was evaluated on a Cedex XS automated cell counter (Innovatis Systems) to determine viable cells/ml. Additional media was added to the cells to achieve a final cell density of 4E5 cells/mL. The cells were then plated into 384 well PDL white solid bottom plates (Greiner, Cat#781945) at 20 μL per well using a Multidrop (Thermo Scientific). Cells were removed from Row P (location of cAMP standards). Two columns of cells were plated into a clear bottom 384 well PDL coated plate (Greiner, Cat#781944) to view confluence the day of the assay. The cell plates were lidded and stored for 15 minutes in a hood, then transferred to an incubator (37° C., 5% CO2, 95% humidity) overnight.
(§4) DMSO was added to all wells of 384 well V bottom polystyrene plate (Greiner, Cat#781280) except to columns 1 and 13, rows O and P and wells M13-M23 and N13-N23. Test compounds (60 μL, 10 mM) were added to Column 1 and 13 (A1 through N1 and A13 through L13). Test compounds were serially diluted 1/3 by transferring and mixing 20 μl sample with 40 μL DMSO.
(§5) DMSO (40 μL) was added to wells of 384 well V bottom polystyrene plate: O2 through O11, M14 through M23, N14 through N23, and O14 through O23. AM630 (also known as [6-iodo-2-methyl-1-[2-(4-morpholinyl)ethyl]-1H-indol-3-yl](4-methoxyphenyl)-methanone, Cayman Chemical, Cat#10006974) (60 μL, 10 mM) was added to O1; and 1-(2,4-dichlorophenyl)-7-[(4-fluorophenyl)methylene]-4,5,6,7-tetrahydro-N-1-piperidinyl-1H-indazole-3-carboxamide (60 μL, 10 mM) was added to N13. The control was serially diluted 1/3 by transferring and mixing 20 μl sample with 40 μL DMSO. This process resulted 11 doses per control, 10 mM to […].
(§6) Cells plated the day prior to the assay in clear bottom plates were viewed on an inverse microscope to ensure confluency in the range of 60-75%. […]

For assay [2], the target named is Human CB2R (Cannabanoid receptor 2) (Homo sapiens (Human), UniProt P34972). Description: CB-2 in vitro cAMP assay (HTRF). Conditions: mean where tested more than once. Type of assay: cell-based.
From the text: as §1, §2, §3, §4, §5, §6

Human CB1R (Cannabanoid receptor 1), sequence (P21554 whole entry): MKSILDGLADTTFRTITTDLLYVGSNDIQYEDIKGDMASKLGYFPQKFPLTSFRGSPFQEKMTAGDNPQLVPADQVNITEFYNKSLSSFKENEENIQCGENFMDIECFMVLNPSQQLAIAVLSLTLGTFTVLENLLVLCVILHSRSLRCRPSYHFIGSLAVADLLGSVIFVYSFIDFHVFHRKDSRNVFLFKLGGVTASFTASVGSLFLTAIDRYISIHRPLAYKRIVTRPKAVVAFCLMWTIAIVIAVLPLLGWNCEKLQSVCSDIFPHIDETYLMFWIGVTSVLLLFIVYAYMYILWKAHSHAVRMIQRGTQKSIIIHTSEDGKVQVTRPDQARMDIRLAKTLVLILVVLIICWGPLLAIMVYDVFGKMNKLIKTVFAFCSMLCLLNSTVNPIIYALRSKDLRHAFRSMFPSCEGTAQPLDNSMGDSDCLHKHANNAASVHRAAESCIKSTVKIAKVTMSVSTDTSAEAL
Human CB2R (Cannabanoid receptor 2), sequence (P34972 whole entry): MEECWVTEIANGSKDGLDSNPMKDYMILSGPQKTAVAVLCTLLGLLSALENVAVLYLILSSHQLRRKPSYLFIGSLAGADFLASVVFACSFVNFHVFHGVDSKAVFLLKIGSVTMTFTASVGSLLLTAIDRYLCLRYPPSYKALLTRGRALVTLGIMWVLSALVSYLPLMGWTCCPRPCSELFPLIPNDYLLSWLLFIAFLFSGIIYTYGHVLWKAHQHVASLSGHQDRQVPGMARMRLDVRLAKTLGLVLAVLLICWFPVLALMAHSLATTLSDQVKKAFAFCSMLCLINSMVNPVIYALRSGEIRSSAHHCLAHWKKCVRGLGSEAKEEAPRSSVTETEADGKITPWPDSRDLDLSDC

In the case of `O=C(NCCCOc1ccc(CCl)cc1)c1ccc(S(=O)(=O)N2CCC(Nc3ncnc4ccc(C(c5ccc(Cl)cc5)c5ccc(Cl)cc5)cc34)CC2)cc1` [Compound #30, 4-((4-((6-(bis(4-chlorophenyl)methyl)quinazolin-4-yl)amino)piperidin-1-yl)sulfonyl)-N-(3-(4-(chloromethyl)phenoxy)propyl)benzamide], the results for the EC50 in assay [1] and in assay [2] were 446 nM and greater than 10000 nM, respectively.

`NCCCCOc1nc(NCc2cccc(C(F)(F)F)c2)c2cc(C(c3ccc(Cl)cc3)c3ccc(Cl)cc3)ccc2n1` [Compound #31, 2-(4-aminobutoxy)-6-(bis(4-chlorophenyl)methyl)-N-(3-(trifluoromethyl)benzyl)quinazolin-4-amine]: the values for the EC50 in assay [1] and in assay [2] were 77 nM and 4120 nM, respectively.

As for `Oc1ccc(N2CCC(Nc3ncnc4ccc(C(c5ccc(Cl)cc5)c5ccc(Cl)cc5)cc34)CC2)cc1` [Compound #32, 4-(4-((6-(bis(4-chlorophenyl)methyl)quinazolin-4-yl)amino)piperidin-1-yl)phenol], the results for the EC50 in assay [1] and in assay [2] were 15 nM and 371 nM, respectively.

As for `CS(=O)(=O)NCCOc1nc(NC2CCN(S(=O)(=O)c3ccc(C(=O)O)cc3)CC2)c2cc(C(c3ccc(Cl)cc3)c3ccc(Cl)cc3)ccc2n1` [Compound #33, 4-((4-((6-(bis(4-chlorophenyl)methyl)-2-(2-(methylsulfonamido)ethoxy)quinazolin-4-yl)amino)piperidin-1-yl)sulfonyl)benzoic acid], the figures for the EC50 in assay [1] and in assay [2] were 227 nM and 917 nM, respectively.

Consider `NC(=O)c1cccc(CN2CCC(Nc3ncnc4ccc(C(c5ccc(Cl)cc5)c5ccc(Cl)cc5)cc34)CC2)c1` [Compound #36, 3-((4-((6-(bis(4-chlorophenyl)methyl)quinazolin-4-yl)amino)piperidin-1-yl)methyl)benzamide], for which the values for the EC50 in assay [1] and in assay [2] were 14 nM and 3640 nM, respectively.

For `O=C(O)c1cccc(CN2CCC(Nc3ncnc4ccc(C(c5ccc(Cl)cc5)c5ccc(Cl)cc5)cc34)CC2)c1` [Compound #37, 3-((4-((6-(bis(4-chlorophenyl)methyl)quinazolin-4-yl)amino)piperidin-1-yl)methyl)benzoic acid], the figures for the EC50 in assay [1] and in assay [2] were 146 nM and 6760 nM, respectively.

As for `O=C(O)c1ccc(S(=O)(=O)N2CCC(Nc3nc(OCCO)nc4ccc(C(c5ccc(Cl)cc5)c5ccc(Cl)cc5)cc34)CC2)cc1` [Compound #39, 4-((4-((6-(bis(4-chlorophenyl)methyl)-2-(2-hydroxyethoxy)quinazolin-4-yl)amino)piperidin-1-yl)sulfonyl)benzoic acid], the EC50 in assay [1] came out at 41 nM; in assay [2] it was 514 nM.

Regarding `O=C(COc1nc(NCc2cccc(C(F)(F)F)c2)c2cc(C(c3ccc(Cl)cc3)c3ccc(Cl)cc3)ccc2n1)NCCO` [Compound #40, 2-((6-(bis(4-chlorophenyl)methyl)-4-((3-(trifluoromethyl)benzyl)amino)quinazolin-2-yl)oxy)-N-(2-hydroxyethyl)acetamide], the EC50 in assay [1] worked out at 10 nM; in assay [2], 1670 nM.

As to `O=C(NC(CO)(CO)CO)c1ccc(S(=O)(=O)N2CCC(Nc3ncnc4ccc(C(c5ccc(Cl)cc5)c5ccc(Cl)cc5)cc34)CC2)cc1` [Compound #41, 4-((4-((6-(Bis(4-chlorophenyl)methyl)quinazolin-4-yl)amino)piperidin-1-yl)sulfonyl)-N-(1,3-dihydroxy-2-(hydroxymethyl)propan-2-yl)benzamide], the values for the EC50 in assay [1] and in assay [2] were 8 nM and 1470 nM, respectively.

Take `COC(=O)c1ccc(CN2CCC(Nc3ncnc4ccc(C(c5ccc(Cl)cc5)c5ccc(Cl)cc5)cc34)CC2)cc1` [Compound #43, Methyl 4-((4-((6-(bis(4-chlorophenyl)methyl)quinazolin-4-yl)amino)piperidin-1-yl)methyl)benzoate]: the EC50 in assay [1] was 59 nM; in assay [2], greater than 10000 nM.

For the molecule `O=C(c1ccc(S(=O)(=O)NCCO)cc1)N1CCC(Nc2ncnc3ccc(C(c4ccc(Cl)cc4)c4ccc(Cl)cc4)cc23)CC1` [Compound #45, 4-(4-((6-(bis(4-chlorophenyl)methyl)quinazolin-4-yl)amino)piperidine-1-carbonyl)-N-(2-hydroxyethyl)benzenesulfonamide], the EC50 in assay [1] was determined as 222 nM; in assay [2], 1200 nM.

In the case of `COc1nc(NC2CCN(S(=O)(=O)c3ccc(C(=O)O)cc3)CC2)c2cc(C(c3ccc(Cl)cc3)c3ccc(Cl)cc3)ccc2n1` [Compound #46, 4-((4-((6-(bis(4-chlorophenyl)methyl)-2-methoxyquinazolin-4-yl)amino)piperidin-1-yl)sulfonyl)benzoic acid], the EC50 worked out at 31 nM in assay [1] and 616 nM in assay [2].

Turning to `O=C(O)CCOCCOc1nc(NCc2cccc(C(F)(F)F)c2)c2cc(C(c3ccc(Cl)cc3)c3ccc(Cl)cc3)ccc2n1` [Compound #48, 3-(2-((6-(bis(4-chlorophenyl)methyl)-4-((3-(trifluoromethyl)benzyl)amino)quinazolin-2-yl)oxy)ethoxy)propanoic acid], the EC50 in assay [1] came out at 67 nM; in assay [2] it was 806 nM.

As to `OCC(CO)COc1nc(NCc2cccc(C(F)(F)F)c2)c2cc(C(c3ccc(Cl)cc3)c3ccc(Cl)cc3)ccc2n1` [Compound #49, 2-(((6-(bis(4-chlorophenyl)methyl)-4-((3-(trifluoromethyl)benzyl)amino)quinazolin-2-yl)oxy)methyl)propane-1,3-diol], the values for the EC50 in assay [1] and in assay [2] were 4 nM and 1930 nM, respectively.

`N#CCCOCCOc1nc(NCc2cccc(C(F)(F)F)c2)c2cc(C(c3ccc(Cl)cc3)c3ccc(Cl)cc3)ccc2n1` [Compound #50, 3-(2-((6-(bis(4-chlorophenyl)methyl)-4-((3-(trifluoromethyl)benzyl)amino)quinazolin-2-yl)oxy)ethoxy)propanenitrile]: the EC50 is 11 nM in assay [1] and greater than 10000 nM in assay [2].

For `N#Cc1ccc(S(=O)(=O)N2CCC(Nc3ncnc4ccc(C(c5ccc(Cl)cc5)c5ccc(Cl)cc5)cc34)CC2)cc1` [Compound #52, 4-((4-((6-(bis(4-chlorophenyl)methyl)quinazolin-4-yl)amino)piperidin-1-yl)sulfonyl)benzonitrile], the figures for the EC50 in assay [1] and in assay [2] were 12 nM and greater than 10000 nM, respectively.

Turning to `OCCCCOc1nc(NCc2cccc(C(F)(F)F)c2)c2cc(C(c3ccc(Cl)cc3)c3ccc(Cl)cc3)ccc2n1` [Compound #53, 4-((6-(bis(4-chlorophenyl)methyl)-4-((3-(trifluoromethyl)benzyl)amino)quinazolin-2-yl)oxy)butan-1-ol], the EC50 was 42 nM in assay [1] and 3700 nM in assay [2].

As for `OCCOc1nc(NCc2cccc(C(F)(F)F)c2)c2cc(C(c3ccc(Cl)cc3)c3ccc(Cl)cc3)ccc2n1` [Compound #55, 2-((6-(bis(4-chlorophenyl)methyl)-4-((3-(trifluoromethyl)benzyl)amino)quinazolin-2-yl)oxy)ethanol], the EC50 in assay [1] turned out to be 13 nM; in assay [2], 4440 nM.

Take `NC(=O)c1cccc(CNc2ncnc3ccc(C(c4ccc(Cl)cc4)c4ccc(Cl)cc4)cc23)c1` [Compound #57, 3-(((6-(bis(4-chlorophenyl)methyl)quinazolin-4-yl)amino)methyl)benzamide]: the EC50 in assay [1] stood at 215 nM; in assay [2], 4950 nM.

`COc1ccc(C(c2ccc(Cl)cc2)c2ccc3ncnc(NC4CCN(c5ccccc5)CC4)c3c2)cc1` (stereo not shown) [Compound #58, 6-((4-chlorophenyl)(4-methoxyphenyl)methyl)-N-(1-phenylpiperidin-4-yl)quinazolin-4-amine]: the figures for the EC50 in assay [1] and in assay [2] were 0.5 nM and 67 nM, respectively.
